How the values were obtained:
peripheral channels = details: in vivo; cited from earlier work
N-type calcium channels = N-type calcium channels (Homo sapiens, UniProt Q00975); details: cited from earlier work
P/Q-type channels = P/Q-type channels (Homo sapiens, UniProt O00555); details: cited from earlier work
N-type calcium channel = N-type calcium channel (Rattus norvegicus, UniProt Q02294); assay type: binding
Chain of N-type calcium channel (Q02294 whole entry, looked up): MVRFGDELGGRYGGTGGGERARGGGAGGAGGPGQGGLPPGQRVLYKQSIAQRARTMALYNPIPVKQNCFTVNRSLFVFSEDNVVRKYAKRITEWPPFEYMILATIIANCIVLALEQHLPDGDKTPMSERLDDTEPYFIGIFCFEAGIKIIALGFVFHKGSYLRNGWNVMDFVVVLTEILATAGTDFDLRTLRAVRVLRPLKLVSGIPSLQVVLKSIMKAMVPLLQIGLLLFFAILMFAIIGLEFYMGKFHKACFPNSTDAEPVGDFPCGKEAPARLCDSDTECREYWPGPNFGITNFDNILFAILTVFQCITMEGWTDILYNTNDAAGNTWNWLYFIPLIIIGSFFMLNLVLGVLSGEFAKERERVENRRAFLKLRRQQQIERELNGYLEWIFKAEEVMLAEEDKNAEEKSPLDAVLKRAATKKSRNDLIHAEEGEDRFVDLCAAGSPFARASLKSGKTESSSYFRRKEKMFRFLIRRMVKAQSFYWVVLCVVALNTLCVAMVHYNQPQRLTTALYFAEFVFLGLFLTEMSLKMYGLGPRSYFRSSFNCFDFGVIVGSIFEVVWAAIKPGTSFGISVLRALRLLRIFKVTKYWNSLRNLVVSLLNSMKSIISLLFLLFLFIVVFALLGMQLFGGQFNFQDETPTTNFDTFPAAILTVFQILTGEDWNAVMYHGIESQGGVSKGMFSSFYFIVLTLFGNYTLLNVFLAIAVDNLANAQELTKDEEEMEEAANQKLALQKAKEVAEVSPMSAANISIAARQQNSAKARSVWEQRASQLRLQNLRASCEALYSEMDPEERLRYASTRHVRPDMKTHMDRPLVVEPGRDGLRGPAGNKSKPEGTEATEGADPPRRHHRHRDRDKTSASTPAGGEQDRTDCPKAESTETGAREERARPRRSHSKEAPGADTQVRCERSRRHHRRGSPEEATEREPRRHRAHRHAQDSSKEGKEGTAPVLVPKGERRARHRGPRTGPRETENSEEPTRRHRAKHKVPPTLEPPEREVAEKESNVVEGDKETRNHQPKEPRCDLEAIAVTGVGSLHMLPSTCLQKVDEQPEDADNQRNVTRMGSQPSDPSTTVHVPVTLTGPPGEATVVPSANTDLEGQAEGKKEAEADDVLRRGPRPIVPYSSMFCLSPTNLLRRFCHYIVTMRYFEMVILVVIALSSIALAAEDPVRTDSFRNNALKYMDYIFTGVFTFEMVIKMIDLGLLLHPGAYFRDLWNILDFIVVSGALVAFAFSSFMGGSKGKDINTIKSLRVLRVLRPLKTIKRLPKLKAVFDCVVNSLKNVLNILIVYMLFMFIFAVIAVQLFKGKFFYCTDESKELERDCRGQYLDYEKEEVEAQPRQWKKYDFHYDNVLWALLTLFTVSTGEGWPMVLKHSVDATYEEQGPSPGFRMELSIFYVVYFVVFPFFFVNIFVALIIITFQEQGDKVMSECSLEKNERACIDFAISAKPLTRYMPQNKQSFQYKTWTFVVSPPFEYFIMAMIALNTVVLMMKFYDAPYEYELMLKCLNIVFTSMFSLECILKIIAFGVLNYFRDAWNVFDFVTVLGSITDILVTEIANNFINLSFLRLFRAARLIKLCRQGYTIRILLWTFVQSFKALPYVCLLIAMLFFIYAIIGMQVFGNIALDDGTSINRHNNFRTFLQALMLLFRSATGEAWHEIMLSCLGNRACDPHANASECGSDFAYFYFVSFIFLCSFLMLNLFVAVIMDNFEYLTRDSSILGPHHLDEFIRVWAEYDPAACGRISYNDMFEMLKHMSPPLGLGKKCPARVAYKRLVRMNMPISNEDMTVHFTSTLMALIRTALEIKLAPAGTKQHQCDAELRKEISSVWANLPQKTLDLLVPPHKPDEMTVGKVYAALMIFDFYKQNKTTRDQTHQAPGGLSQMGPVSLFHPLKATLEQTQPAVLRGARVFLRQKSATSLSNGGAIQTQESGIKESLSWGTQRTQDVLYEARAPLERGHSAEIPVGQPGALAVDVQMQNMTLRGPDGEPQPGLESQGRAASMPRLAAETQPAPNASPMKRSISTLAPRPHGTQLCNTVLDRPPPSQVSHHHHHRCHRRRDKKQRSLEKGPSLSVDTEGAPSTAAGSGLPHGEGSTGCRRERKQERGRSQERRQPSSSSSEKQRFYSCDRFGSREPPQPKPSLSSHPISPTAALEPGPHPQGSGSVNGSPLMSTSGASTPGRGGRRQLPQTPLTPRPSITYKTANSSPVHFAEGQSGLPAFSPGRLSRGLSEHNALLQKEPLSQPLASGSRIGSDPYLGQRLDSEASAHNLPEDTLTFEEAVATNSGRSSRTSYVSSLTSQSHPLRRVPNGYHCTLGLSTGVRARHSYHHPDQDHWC

Chain of N-type calcium channels (Q00975 whole entry, looked up): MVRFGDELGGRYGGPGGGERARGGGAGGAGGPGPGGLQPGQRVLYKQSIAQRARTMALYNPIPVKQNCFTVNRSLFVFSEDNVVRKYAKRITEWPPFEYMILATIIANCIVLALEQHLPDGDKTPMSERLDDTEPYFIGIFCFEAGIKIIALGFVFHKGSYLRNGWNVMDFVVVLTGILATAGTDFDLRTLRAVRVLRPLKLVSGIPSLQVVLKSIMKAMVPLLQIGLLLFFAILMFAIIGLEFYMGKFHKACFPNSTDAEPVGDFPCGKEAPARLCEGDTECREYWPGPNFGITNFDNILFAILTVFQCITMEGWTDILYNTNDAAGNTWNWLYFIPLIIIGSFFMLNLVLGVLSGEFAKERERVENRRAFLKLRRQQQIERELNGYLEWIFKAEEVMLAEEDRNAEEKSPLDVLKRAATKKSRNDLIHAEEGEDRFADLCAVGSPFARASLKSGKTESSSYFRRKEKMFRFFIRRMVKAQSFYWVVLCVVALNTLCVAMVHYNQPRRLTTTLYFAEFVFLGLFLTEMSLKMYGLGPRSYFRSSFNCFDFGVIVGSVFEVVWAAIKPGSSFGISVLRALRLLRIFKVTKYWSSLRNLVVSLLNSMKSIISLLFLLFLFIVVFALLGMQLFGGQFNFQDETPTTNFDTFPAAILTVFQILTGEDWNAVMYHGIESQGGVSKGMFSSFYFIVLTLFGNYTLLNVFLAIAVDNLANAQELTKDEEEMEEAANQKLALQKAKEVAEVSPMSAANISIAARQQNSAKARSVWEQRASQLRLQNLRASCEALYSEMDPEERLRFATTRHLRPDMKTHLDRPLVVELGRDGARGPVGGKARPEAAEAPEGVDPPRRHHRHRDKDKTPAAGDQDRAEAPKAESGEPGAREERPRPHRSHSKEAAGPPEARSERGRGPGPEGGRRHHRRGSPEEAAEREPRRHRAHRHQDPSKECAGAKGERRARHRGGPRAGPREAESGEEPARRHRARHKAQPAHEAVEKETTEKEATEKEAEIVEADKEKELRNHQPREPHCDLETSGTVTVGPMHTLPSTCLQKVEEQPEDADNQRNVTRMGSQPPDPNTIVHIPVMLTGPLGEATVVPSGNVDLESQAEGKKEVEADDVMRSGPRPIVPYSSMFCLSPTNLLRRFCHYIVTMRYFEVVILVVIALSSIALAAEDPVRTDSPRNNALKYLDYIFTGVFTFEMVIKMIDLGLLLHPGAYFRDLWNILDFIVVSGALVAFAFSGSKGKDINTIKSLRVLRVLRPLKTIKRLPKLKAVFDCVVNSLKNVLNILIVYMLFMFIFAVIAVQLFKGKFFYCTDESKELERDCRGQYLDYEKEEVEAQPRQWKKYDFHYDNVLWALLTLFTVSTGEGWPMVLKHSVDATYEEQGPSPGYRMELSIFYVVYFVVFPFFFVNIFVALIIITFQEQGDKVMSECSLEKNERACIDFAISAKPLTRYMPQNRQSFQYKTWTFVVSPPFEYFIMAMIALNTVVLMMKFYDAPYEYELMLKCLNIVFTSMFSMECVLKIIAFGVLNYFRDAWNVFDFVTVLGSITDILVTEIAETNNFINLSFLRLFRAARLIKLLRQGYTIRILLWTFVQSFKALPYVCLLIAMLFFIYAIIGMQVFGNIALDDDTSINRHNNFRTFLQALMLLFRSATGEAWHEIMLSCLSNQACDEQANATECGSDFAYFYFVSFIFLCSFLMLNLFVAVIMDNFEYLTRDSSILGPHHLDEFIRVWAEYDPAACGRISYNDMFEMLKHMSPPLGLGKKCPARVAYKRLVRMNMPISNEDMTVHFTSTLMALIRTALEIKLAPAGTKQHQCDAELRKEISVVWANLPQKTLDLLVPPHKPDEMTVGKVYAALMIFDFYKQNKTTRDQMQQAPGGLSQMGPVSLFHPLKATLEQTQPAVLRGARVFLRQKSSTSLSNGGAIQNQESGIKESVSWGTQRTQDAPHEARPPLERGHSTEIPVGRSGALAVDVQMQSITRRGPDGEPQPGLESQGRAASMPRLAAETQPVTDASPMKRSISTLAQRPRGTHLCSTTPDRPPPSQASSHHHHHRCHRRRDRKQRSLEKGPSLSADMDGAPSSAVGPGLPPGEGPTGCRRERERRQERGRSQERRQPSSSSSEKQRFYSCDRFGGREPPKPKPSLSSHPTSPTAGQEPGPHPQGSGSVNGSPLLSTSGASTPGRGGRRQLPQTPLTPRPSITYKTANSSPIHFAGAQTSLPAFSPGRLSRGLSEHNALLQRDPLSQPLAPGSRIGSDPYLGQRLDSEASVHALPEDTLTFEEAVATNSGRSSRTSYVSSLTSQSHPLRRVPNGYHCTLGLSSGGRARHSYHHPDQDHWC

Compound | affinity / selectivity for N-type calcium channels (N-type calcium channels) | potency for N-type calcium channel in receptor binding assays (N-type calcium channel) | selectivity for N-type calcium channel over P/Q-type calcium channel in receptor binding assays (N-type calcium channel) | also measured
CSCC[C@@H]1NC(=O)[C@H](CC(C)C)NC(=O)[C@H](CCCNC(=N)N)NC(=O)[C@H](CO)NC(=O)[C@@H]2CSSC[C@@H]3NC(=O)[C@H](CO)NC(=O)CNC(=O)[C@H]([C@@H](C)O)NC(=O)[C@H](CSSC[C@H](N)C(=O)N[C@@H](CCCCN)C(=O)NCC(=O)N[C@@H](CCCCN)C(=O)NCC(=O)N[C@@H](C)C(=O)N[C@@H](CCCCN)C(=O)N2)NC(=O)[C@H](CSSC[C@@H](C(N)=O)NC(=O)[C@H](CCCCN)NC(=O)CNC(=O)[C@H](CO)NC(=O)[C@H](CCCNC(=N)N)NC3=O)NC(=O)[C@H](CC(=O)O)NC(=O)[C@H](Cc2ccc(O)cc2)NC1=O [SNX-111] |  |  |  | hypotension (peripheral channels): cause hypotension
CKGKOAPCRKTMYDCCSGSCGRRGKC [MVIIC] | low affinity |  |  | binding to P/Q-type channels (P/Q-type channels): bind strongly
CKSKGAKCSKLMYDCCSGSCSGTVGRC [CVID] |  | high potency | high selectivity | 
CKSKGAKCSRLMYDCCSGSCSGTVGRC [R^10-CVID] |  | high potency | high selectivity | 
CKSOGSSCSOTSYNCCRSCNOYTKRCY [GVIA] | high level of selectivity |  |  | antagonism of N-type calcium channels (N-type calcium channels): potent antagonist; reversibility of binding to N-type calcium channels (N-type calcium channels): irreversible
